According to the supplement of paper PMC11997997:

Assays:
[1] = tested on: murine bone marrow-derived macrophages; test: area under cytotoxicity dose-response curve (AUC (% cytotoxicity x dose, relative)); higher = more cytotoxic; details: duration: 6 days; dose range: 0.13-80 uM, 8 points
Outline: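 An 8-point, 2.5-fold dilution series (final 80–0.13 μM) was applied for 6 days at 37 °C in 5% CO2 to primary murine bone marrow-derived macrophages plated in opaque 384-well plates. Promega's CellTiter-Glo luminescence assay measured viability, and percent cytotoxicity was normalised against vehicle and positive control wells. The area under the dose–response curve, worked out in GraphPad Prism version 10, is the reported cytotoxicity measure.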

[2] = tested on: Mycobacterium tuberculosis CDC1551 (intracellular, in murine BMDM); test: area under intracellular growth-inhibition dose-response curve (AUC (% inhibition x dose, relative)); higher = more potent; details: duration: 6 days; dose range: 0.13-80 uM, 8 points
Outline: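 Each value is an area under the growth-inhibition dose–response curve, calculated with GraphPad Prism. Infected primary murine bone marrow-derived macrophages, carrying luciferase-expressing M. tuberculosis CDC1551 at multiplicity of infection 1, were treated for 6 days with an 8-dose, 2.5-fold series (final 80–0.13 μM) in 384-well opaque plates. Readout was by Bright-Glo luciferin assay, normalised to a reference drug control and the lowest-concentration wells.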

Row | SMILES | area under cytotoxicity dose-response curve [1] | area under intracellular growth-inhibition dose-response curve [2]
1 | COc1cc(C(=O)Nc2cc(S(=O)(=O)N3CCOCC3)ccc2N2CCOCC2)ccc1OC(F)F | < 0 | 44.6
2 | Cc1nc(N)nc(N)c1/C=C/C(C)(C)c1ccc(Cl)cc1.Cl | 5.71 | 230
3 | COC(=O)c1c(NC(=O)CN2C(=O)NC3(CCCCC3C)C2=O)sc2c1CCC2 (centres undefined) | 4.39 | 78.7
4 | CCC(=O)NC(=S)Nc1ccc(NC(=S)NC(=O)c2ccccc2)cc1 | 48.6 | 263
5 | O=C(NNC(=O)c1cc2ccccc2o1)c1ccncc1 | 11.1 | 135
6 | CS(=O)(=O)c1ccc([C@@H](O)[C@@H](CF)NC(=O)C(Cl)Cl)cc1 | 62.1 | 78.9
7 | Cc1cc(OCCCC(=O)NNC(=O)c2ccncc2)ccc1Cl | 25.3 | 245
8 | COc1ccc(OCCCC(=O)NNC(=O)c2ccncc2)cc1 | 6.62 | 227
9 | CC1CCCC(/C=N/c2ccc(C(=O)O)c(O)c2)=C1O (centres undefined) | < 0 | 135
10 | CCOC(=O)[N-]c1c[n+](N2CCOCC2)no1 | 41.1 | 28
11 | CC(NC(=O)c1ccc(F)cc1)C1CC2CCC1C2 (centres undefined) | 238 | 168
12 | CCOc1ccc(-c2cc(C)[n+](CCc3ccc(OC)c(OC)c3)c(-c3ccc(OCC)cc3)c2)cc1.[O-][Cl+3]([O-])([O-])[O-] | 102 | 60.7
13 | O=C(c1cc2ccccc2o1)N1CCN(Cc2ccc3c(c2)OCO3)CC1 | 68.3 | 172
14 | COc1ccc(/C=N/NC(=O)c2ccncc2)cc1CN1CCCc2ccccc21 | 19.4 | 201
15 | C/C(=N\NC(=O)c1ccncc1)c1ccc(N(C)C)cc1 | 58.7 | 182
16 | COC(=O)c1ccc2nc(C)cc(Nc3ccc(N(C)C)cc3)c2c1.Cl | < 0 | 243
17 | COc1ccccc1C(CNC(=O)c1ccc(-c2ccccc2Cl)o1)N1CCCC1 (centres undefined) | 141 | 164
18 | O=C(C1COc2ccccc2O1)N1CCCCC1 (centres undefined) | 76 | 236
19 | CC(NC(=O)c1cc2ccccc2o1)c1cccs1 (centres undefined) | < 0 | 257
20 | CN(C)[C@@H]1C(=O)C(C(N)=O)=C(O)[C@@]2(O)C(O)=C3C(=O)c4c(O)cccc4[C@@](C)(O)C3[C@H](O)C12.Cl (some centres undefined) | 62.5 | 271
21 | O=C(N/N=C/c1ccc2c(c1)OCCO2)c1ccncc1 | 66.5 | 124

Row | SMILES | area under cytotoxicity dose-response curve [1] | area under intracellular growth-inhibition dose-response curve [2]
22 | CC(=O)Nc1ccc(/C(C)=N/NC(=O)c2ccncc2)cc1 | 0.755 | 250
23 | COc1ccccc1N1C(C)=CC(=Cc2sc3ccccc3[n+]2C)C=C1C.[I-] | 25.9 | 119
24 | NC(=S)N/N=C/c1ccc(-c2ccc([N+](=O)[O-])cc2)o1 | < 0 | 217
25 | On1c(-c2ccccc2)nc2ccccc21 | < 0 | 28.6
26 | C/C(=N\Nc1nc(C)c(C)s1)c1ccc([N+](=O)[O-])cc1 | < 0 | 222
27 | COc1ccc(Cc2nnc(-c3ccccc3)o2)cc1 | 28.8 | 243
28 | CCOC(=O)c1cnc(-n2nc(C)cc2C)nc1NCCc1ccccc1 | 21.7 | 247
29 | Cc1ccc2sc(N3CCN(C(=O)c4ccc([N+](=O)[O-])o4)CC3)nc2c1C | 11.3 | 12.2
30 | CC1CCN(C(=O)C2CCN(c3ncnc4c3nc3n4CCCCC3)CC2)CC1 | 35.4 | 176
31 | Cc1ccc(C(=O)N2CCN(c3ccc(NC(=S)NC(=O)Cc4ccccc4)cc3)CC2)cc1 | 53.7 | 212
32 | O=c1c2ccccc2oc2nc3n(c(=O)c12)CCCS3 | 47.5 | 223
33 | O=C(CC1CCCCC1)NCC1CCCO1 (centres undefined) | 25.1 | 165
34 | Cc1nn(Cc2ccccc2)c(Cl)c1C(=O)NCc1ccco1 | 16.8 | 104
35 | CCCCOc1ccc(C(=O)C2=C(O)C(=O)N(CCCOC)C2c2ccncc2)cc1 (centres undefined) | 19.4 | 106
36 | O=C(COC(=O)c1cc(Cl)nc(Cl)c1)NCCc1ccc(F)cc1 | 4.71 | 108
37 | Cc1nc2ccccn2c1C(=O)NCc1ccc2c(c1)OCO2 | 38.9 | 203
38 | O=C(NCc1cccc(Cl)c1)c1cccc(S(=O)(=O)N2CCCCC2)c1 | < 0 | 60.1
39 | O=C(O)C(=O)O.O=[N+]([O-])c1ccc(N2CCN(Cc3ccc([N+](=O)[O-])o3)CC2)cc1 | 45.2 | 245
40 | CCC(=O)N(C)CCc1cc2c(c(OC)c1/C=N/NC(=O)c1ccncc1)OCO2 | 48.4 | 127
41 | CC(C)(C)C1C/C(=C/c2ccccn2)C(=O)/C(=C/c2ccccn2)C1 (centres undefined) | 155 | 65.4
42 | NC1CCN(c2c(F)cc3c(=O)c(C(=O)O)cn(C4CC4)c3c2Cl)C1 (centres undefined) | < 0 | 210

Row | SMILES | area under cytotoxicity dose-response curve [1] | area under intracellular growth-inhibition dose-response curve [2]
43 | C/C(Cn1cnc([N+](=O)[O-])n1)=N/NC(=O)COc1c(Cl)cc(Cl)cc1Cl | < 0 | 196
44 | CNc1nc(SC)nc2ccsc12 | 11.7 | 221
45 | O=C(CC1CC2CCC1C2)NCc1cccs1 (centres undefined) | 65.1 | 193
46 | Cc1ccc(OCCOC(=O)c2c(-c3ccccc3)noc2C)cc1 | < 0 | 200
47 | O=C(COc1ccccc1)NCc1cccs1 | 14.2 | 130
48 | O=C(COC(=O)c1ccc([N+](=O)[O-])o1)Nc1ccc(F)cc1 | < 0 | 144
49 | CC1CCN(C(=O)C2CCC(CNc3c(N4CCCCC4)c(=O)c3=O)CC2)CC1 (centres undefined) | 8.86 | 87.1
50 | O=C(N/N=C/c1ccc(O)c([N+](=O)[O-])c1)c1ccncc1 | < 0 | 256
51 | Br.COc1ccc(C2=CSC(/N=C/c3ccc(F)cc3)=NN2)cc1 | 49.1 | 182
52 | CC1CCN(c2ccc(NC(=O)c3ccc([N+](=O)[O-])o3)cc2)CC1.Cl | 90.4 | 56.1
53 | O=C(N/N=C/c1coc2ccccc2c1=O)c1ccncc1 | < 0 | 272
54 | CCCN1CNC(=S)N(c2ccc(C(=O)OCC)cc2)C1 | 9 | 83.8
55 | CC(NC(=O)COC(=O)c1ccc(N2CCCC2=O)cc1)c1ccc(F)cc1 (centres undefined) | < 0 | 37.5
56 | CCc1ccc(C(=O)NC2CCCCC2)s1 | 42.5 | 239
57 | O=C(N/N=C/C=C/c1cccc([N+](=O)[O-])c1)c1ccncc1 | 17.5 | 111
58 | Cc1ccc(S(=O)(=O)c2ccc([N+](=O)[O-])cn2)cc1 | 102 | < 0
59 | C/C(=N\NC(N)=S)c1ccc2c(c1)OCCO2 | 25.3 | 196
60 | Cc1cc(C)c2c(n1)sc1c(N3CCCCC3)ncnc12 | 73.3 | 142
61 | NC(=S)N/N=C/c1cccc(/C=N/NC(N)=S)c1 | 91.2 | 177
62 | NC(=S)N/N=C/c1c[nH]c2ccccc12 | 35.6 | 231
